In patent publication US10239873B2, “7-azaindole or 4,7-diazaindole derivatives as IKKϵ epsilon and TBK1 inhibitor and pharmaceutical composition comprising same” (GREEN CROSS CORPORATION, priority 2015, dated 2019) one finds IC50 data, which are given here for 19 compounds.

For one experiment, the target named is T1, IKKε (Homo sapiens, UniProt Q14164).
T1 construct: purchased Promega and/or Invitrogen V4158; PR8031B; V3991 (not assigned to the two kinases)
T1 sequence (Q14164 1-716): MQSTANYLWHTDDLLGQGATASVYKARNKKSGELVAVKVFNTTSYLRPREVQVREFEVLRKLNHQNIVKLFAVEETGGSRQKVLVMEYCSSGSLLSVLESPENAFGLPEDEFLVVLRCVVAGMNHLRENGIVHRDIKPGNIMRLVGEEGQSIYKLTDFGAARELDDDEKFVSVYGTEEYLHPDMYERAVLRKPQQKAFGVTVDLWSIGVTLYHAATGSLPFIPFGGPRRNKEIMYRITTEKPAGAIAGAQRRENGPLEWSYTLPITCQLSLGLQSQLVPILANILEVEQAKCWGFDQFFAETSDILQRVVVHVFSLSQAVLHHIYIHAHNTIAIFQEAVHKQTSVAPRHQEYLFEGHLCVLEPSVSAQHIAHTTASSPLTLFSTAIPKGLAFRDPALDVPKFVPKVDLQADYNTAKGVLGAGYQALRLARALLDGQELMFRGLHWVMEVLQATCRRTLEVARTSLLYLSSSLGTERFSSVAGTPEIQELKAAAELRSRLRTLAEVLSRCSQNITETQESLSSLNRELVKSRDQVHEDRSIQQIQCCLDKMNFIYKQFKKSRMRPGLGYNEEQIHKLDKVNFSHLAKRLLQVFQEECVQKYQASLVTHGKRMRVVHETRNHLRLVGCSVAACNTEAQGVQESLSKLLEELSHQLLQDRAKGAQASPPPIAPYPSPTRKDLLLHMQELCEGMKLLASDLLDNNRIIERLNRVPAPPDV
As to the kind of experiment: ADP-Glo Kinase Assay, inhibition activity on IKKε. The experiment is classed as biochemical. The procedure: Inhibition activities on IKKϵ and TBK1 were evaluated using the compounds of Examples 1 to 250.
The inhibition activities on IKKϵ and TBK1 were measured by a luminometer, IKKϵ/TBK1 Kinase Enzyme System (Promega, Ca# V4158; Invitrogen, PR8031B, Promega, Ca# V3991) and ADP-Glo Kinase Assay using ADP-Glo™ Kinase Analysis Kit (Promega, Ca# V9101) and a kinase reaction buffer [40 mM Tris(pH 7.5), 20 mM MgCl2, 0.1 mg/mL BSA] in accordance with the manufacturer's protocol.

The next experiment concerns the target T2, TBK1 (Homo sapiens, UniProt Q9UHD2).
T2 construct: purchased Promega (Invitrogen is also named in the same bracket) V4158; PR8031B; V3991 (not assigned to the two kinases)
T2 sequence (Q9UHD2 1-729): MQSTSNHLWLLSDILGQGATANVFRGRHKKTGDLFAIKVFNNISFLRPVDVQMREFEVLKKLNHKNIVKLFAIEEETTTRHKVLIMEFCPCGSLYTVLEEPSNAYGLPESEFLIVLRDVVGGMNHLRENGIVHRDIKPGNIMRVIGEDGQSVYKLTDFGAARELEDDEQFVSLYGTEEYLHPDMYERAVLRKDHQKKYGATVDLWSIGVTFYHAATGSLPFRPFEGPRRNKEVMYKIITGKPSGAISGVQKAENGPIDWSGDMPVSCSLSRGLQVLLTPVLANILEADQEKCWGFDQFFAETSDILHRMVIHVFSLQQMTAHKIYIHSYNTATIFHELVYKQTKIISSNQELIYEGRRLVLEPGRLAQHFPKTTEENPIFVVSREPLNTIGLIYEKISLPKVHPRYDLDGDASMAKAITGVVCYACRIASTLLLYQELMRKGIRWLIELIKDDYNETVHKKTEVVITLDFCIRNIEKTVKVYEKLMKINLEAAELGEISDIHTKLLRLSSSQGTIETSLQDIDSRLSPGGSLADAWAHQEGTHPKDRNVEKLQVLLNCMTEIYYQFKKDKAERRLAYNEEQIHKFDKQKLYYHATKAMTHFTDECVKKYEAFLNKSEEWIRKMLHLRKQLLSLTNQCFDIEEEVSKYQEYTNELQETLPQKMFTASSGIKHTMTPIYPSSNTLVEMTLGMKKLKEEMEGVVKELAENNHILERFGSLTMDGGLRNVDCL
As to the kind of experiment: ADP-Glo Kinase Assay, inhibition activity on TBK1. It is filed as biochemical. Summed up: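 Kinase activity measured with the ADP-Glo luminescent ADP-detection kit per manufacturer's protocol, using IKKε or TBK1 kinase enzyme systems. Reaction buffer: 40 mM Tris (pH 7.5), 20 mM MgCl2, 0.1 mg/mL BSA; luminescence read on a luminometer.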

Where a name gives a salt, the structure may show the parent alone.

Regarding `CC(C)NC(=O)N1CC=C(c2c[nH]c3ncc(-c4cccc(C(=O)N5CCN(C)CC5)c4)cc23)CC1` [Example 31, N-isopropyl-4-(5-(3-(4-methylpiperazine-1-carbonyl)phenyl)-1H-pyrrolo[2,3-b]pyridin-3-yl)-5,6-dihydropyridine-1(2H)-carboxamide], the IC50 against IKKε stood at 46 nM; at TBK1 it was 15 nM.
The matching figures for `CC(C)NC(=O)N1CC=C(c2c[nH]c3ncc(-c4ccc(C(=O)N5CCN(C)CC5)cc4)cc23)CC1` [Example 32, N-isopropyl-4-(5-(4-(4-methylpiperazine-1-carbonyl)phenyl)-1H-pyrrolo[2,3-b]pyridin-3-yl)-5,6-dihydropyridine-1(2H)-carboxamide]: 13 nM and 7 nM.
The corresponding values for `CC(C)NC(=O)N1CC=C(c2c[nH]c3ncc(-c4ccc(CN5CCN(C)CC5)s4)cc23)CC1` [Example 33, N-isopropyl-4-(5-(5-((4-methylpiperazin-1-yl)methyl)thiophen-2-yl)-1H-pyrrolo[2,3-b]pyridin-3-yl)-5,6-dihydropyridine-1(2H)-carboxamide] are 6.9 nM and 1.1 nM.
The matching figures for `CC(C)NC(=O)N1CC=C(c2c[nH]c3ncc(-c4ccc(CN5CCN(C)CC5)o4)cc23)CC1` [Example 35, N-isopropyl-4-(5-(5-((4-methylpiperazin-1-yl)methyl)furan-2-yl)-1H-pyrrolo[2,3-b]pyridin-3-yl)-5,6-dihydropyridine-1(2H)-carboxamide]: 110 nM and 18 nM.
As for `CC(C)NC(=O)N1CC=C(c2c[nH]c3ncc(-c4ccc(NC5CCOCC5)cc4)cc23)CC1` [Example 37, N-isopropyl-4-(5-(4-((tetrahydro-2H-pyran-4-yl)amino)phenyl)-1H-pyrrolo[2,3-b]pyridin-3-yl)-3,6-dihydropyridine-1(2H)-carboxamide], the IC50 worked out at 13 nM on IKKε and 10 nM on TBK1.
The matching figures for `CC(C)NC(=O)N1CC=C(c2c[nH]c3ncc(-c4ccc(OC5CCOCC5)cc4)cc23)CC1` [Example 38, N-isopropyl-4-(5-(4-((tetrahydro-2H-pyran-4-yl)oxy)phenyl)-1H-pyrrolo[2,3-b]pyridin-3-yl)-3,6-dihydropyridine-1(2H)-carboxamide]: 21 nM and 29 nM.
The corresponding values for `CC(C)NC(=O)N1CC=C(c2c[nH]c3ncc(-c4ccc(N)c5c4CNC5=O)cc23)CC1` [Example 39, 4-(5-(7-Amino-1-oxoisoindolidin-4-yl)-1H-pyrrolo[2,3-b]pyridin-3-yl)-N-isopropyl-3,6-dihydropyridine-1(2H)-carboxamide] are 35 nM and 35 nM.
The matching figures for `CCC(CC)NC(=O)N1CC=C(c2c[nH]c3ncc(-c4ccc(CN5CCOCC5)s4)cc23)CC1` [Example 40, 4-(5-(5-(Morpholinomethyl)thiophen-2-yl)-1H-pyrrolo[2,3-b]pyridin-3-yl)-N-(pentan-3-yl)-3,6-dihydropyridine-1(2H)-carboxamide]: 170 nM and 74 nM.
For `CCC(CC)NC(=O)N1CC=C(c2c[nH]c3ncc(-c4ccc(CN5CCN(C)CC5)s4)cc23)CC1` [Example 41, 4-(5-(5-((4-Methylpiperazin-1-yl)methyl)thiophen-2-yl)-1H-pyrrolo[2,3-b]pyridin-3-yl)-N-(pentan-3-yl)-3,6-dihydropyridine-1(2H)-carboxamide], the IC50 stood at 220 nM against IKKε and 47 nM on TBK1.
Take `CCC(C)NC(=O)N1CC=C(c2c[nH]c3ncc(-c4ccc(CN5CCN(C)CC5)s4)cc23)CC1` (centres unmarked) [Example 42, N-(sec-butyl)-4-(5-(5-((4-methylpiperazin-1-yl)methyl)thiophen-2-yl)-1H-pyrrolo[2,3-b]pyridin-3-yl)-5,6-dihydropyridine-1(2H)-carboxamide]: the IC50 against IKKε amounted to 62 nM; on TBK1 it was 1.9 nM.
The matching figures for `O=C(NC1CC1)N1CC=C(c2c[nH]c3ncc(-c4ccc(CN5CCNCC5)s4)cc23)CC1` [Example 45, N-cyclopropyl-4-(5-(5-(piperazin-1-ylmethyl)thiophen-2-yl)-1H-pyrrolo[2,3-b]pyridin-3-yl)-5,6-dihydropyridine-1(2H)-carboxamide dihydrochloride]: 24 nM and 3.3 nM.
The corresponding values for `CN1CCN(Cc2ccc(-c3cnc4[nH]cc(C5=CCN(C(=O)NC6CC6)CC5)c4c3)cc2)CC1` [Example 46, N-cyclopropyl-4-(5-(4-((4-methylpiperazin-1-yl)methyl)phenyl)-1H-pyrrolo[2,3-b]pyridin-3-yl)-5,6-dihydropyridine-1(2H)-carboxamide] are 25 nM and 14 nM.
As for `CN1CCN(Cc2ccc(-c3cnc4[nH]cc(C5=CCN(C(=O)NC6CC6)CC5)c4c3)s2)CC1` [Example 47, N-cyclopropyl-4-(5-(5-((4-methylpiperazin-1-yl)methyl)thiophen-2-yl)-1H-pyrrolo[2,3-b]pyridin-3-yl)-5,6-dihydropyridine-1(2H)-carboxamide], the IC50 on IKKε is 12 nM; at TBK1, 3.6 nM.
The matching figures for `O=C(NC1CC1)N1CC=C(c2c[nH]c3ncc(-c4ccc(CN5CCOCC5)s4)cc23)CC1` [Example 48, N-cyclopropyl-4-(5-(5-(morpholinomethyl)thiophen-2-yl)-1H-pyrrolo[2,3-b]pyridin-3-yl)-5,6-dihydropyridine-1(2H)-carboxamide]: 10 nM and 8.2 nM.
For `COc1ccc(-c2cnc3[nH]cc(C4=CCN(C(=O)NC5CCCC5)CC4)c3c2)cc1F` [Example 50, N-cyclopentyl-4-(5-(3-fluoro-4-methoxyphenyl)-1H-pyrrolo[2,3-b]pyridin-3-yl)-5,6-dihydropyridine-1(2H)-carboxamide], the IC50 was determined as 410 nM at IKKε and 330 nM against TBK1.
The corresponding values for `CS(=O)(=O)c1cccc(-c2cnc3[nH]cc(C4=CCN(C(=O)NC5CCCC5)CC4)c3c2)c1` [Example 52, N-cyclopentyl-4-(5-(3-(methylsulfonyl)phenyl)-1H-pyrrolo[2,3-b]pyridin-3-yl)-5,6-dihydropyridine-1(2H)-carboxamide] are 48 nM and 23 nM.
Regarding `CCS(=O)(=O)c1cccc(-c2cnc3[nH]cc(C4=CCN(C(=O)NC5CCCC5)CC4)c3c2)c1` [Example 54, N-cyclopentyl-4-(5-(3-(ethylsulfonyl)phenyl)-1H-pyrrolo[2,3-b]pyridin-3-yl)-3,6-dihydropyridine-1(2H)-carboxamide], the IC50 came to 84 nM at IKKε and 32 nM against TBK1.
The matching figures for `CCCS(=O)(=O)c1ccc(-c2cnc3[nH]cc(C4=CCN(C(=O)NC5CCCC5)CC4)c3c2)cc1` [Example 55, N-cyclopentyl-4-(5-(4-(propylsulfonyl)phenyl)-1H-pyrrolo[2,3-b]pyridin-3-yl)-5,6-dihydropyridine-1(2H)-carboxamide]: 600 nM and 51 nM.
The matching figures for `O=C(NC1CCCC1)N1CC=C(c2c[nH]c3ncc(-c4ccc(S(=O)(=O)C5CC5)cc4)cc23)CC1` [Example 56, N-cyclopentyl-4-(5-(4-(cyclopropylsulfonyl)phenyl)-1H-pyrrolo[2,3-b]pyridin-3-yl)-5,6-dihydropyridine-1(2H)-carboxamide]: 190 nM and 58 nM.

For orientation: IC50 means the concentration at which inhibition is half-maximal.
